Test results: PMC6438725 (Arthritis & rheumatology (Hoboken, N.J.), 2019)
“And” between values parts separate entries of the source, which are not always exact repeats. Equal values may be shown once. Non-standard residues stand in square brackets, D forms with d. Residues, ends and D or L forms follow the SMILES beside them. No end group written: not given here. Cit = NC(=O)NCCC[C@H](N)C(=O)O

Target: DR0401 (HLA-DRB1*04:01) (Homo sapiens, UniProt P01903+P01911, A100K/A169T/F76Y/I96L/K127E/L162R/M171V/N62H/P40V/Q125Y/R42H/S133A/S149N/S66Y/V115G/V209L/W38E)
Assay: Peptide binding to DR0401

CC[C@H](C)[C@H](NC(=O)[C@@H]1CCCN1C(=O)[C@H](Cc1ccc(O)cc1)NC(=O)[C@H](CCCNC(N)=O)NC(=O)[C@@H](NC(=O)[C@H](CO)NC(=O)[C@H](CCCNC(N)=O)NC(=O)[C@H](CC(=O)O)NC(=O)[C@H](C)NC(=O)[C@H](CC(C)C)NC(=O)[C@H](Cc1c[nH]c2ccccc12)NC(=O)CNC(=O)[C@H](C)NC(=O)[C@@H](N)CO)C(C)C)C(=O)N[C@@H](CO)C(=O)N[C@@H](CCCCN)C(=O)O [agg 298-313] (H-SAGWLAD[Cit]SV[Cit]YPISK-OH)
EC50: 1.9 µM and 2.94 µM

VVLLVATEG[Cit]VRVNSAYQDK [cit-Agg84, reference compound]
Binding to DR0401 (in words) (data not shown): very low affinity

CC[C@H](C)[C@H](NC(=O)[C@@H](NC(=O)[C@H](CCCNC(N)=O)NC(=O)[C@H](CC(C)C)NC(=O)[C@@H](NC(=O)[C@@H](NC(=O)[C@H](Cc1ccccc1)NC(=O)[C@@H](NC(=O)[C@H](Cc1c[nH]c2ccccc12)NC(=O)[C@H](CC(C)C)NC(=O)[C@H](CC(C)C)NC(=O)[C@@H](N)[C@@H](C)O)C(C)C)C(C)C)[C@@H](C)O)C(C)C)C(=O)N[C@H](C(=O)N[C@@H](C)C(=O)N[C@@H](C)C(=O)N[C@H](C(=O)N[C@H](C(=O)N[C@H](C(=O)O)C(C)C)[C@@H](C)O)C(C)C)[C@@H](C)O [agg 3-20] (H-TLLWVFVTL[Cit]VITAAVTV-OH)
EC50: 35.3 µM and 36.1 µM

CC(C)C[C@H](NC(=O)[C@H](CCCNC(N)=O)NC(=O)[C@@H](NC(=O)[C@H](C)NC(=O)[C@H](Cc1ccccc1)NC(=O)[C@H](Cc1ccccc1)NC(=O)[C@@H](NC(=O)[C@@H](N)CCC(=O)O)C(C)C)[C@@H](C)O)C(=O)N[C@@H](CCC(=O)O)C(=O)N[C@@H](CCC(N)=O)C(=O)N[C@@H](Cc1ccccc1)C(=O)N[C@H](C(=O)N[C@@H](Cc1ccccc1)C(=O)N[C@@H](CCC(N)=O)C(=O)N[C@@H](CCC(=O)O)C(=O)O)[C@@H](C)O [agg 579] (H-EVFFAT[Cit]LEQFTFQE-OH)
EC50: 78.4 µM and 15.3 µM

CC(C)C[C@H](NC(=O)[C@H](CS)NC(=O)[C@H](Cc1ccccc1)NC(=O)[C@@H]1CCCN1C(=O)[C@H](CO)NC(=O)[C@@H](N)CC(N)=O)C(=O)N[C@@H](CCC(=O)O)C(=O)N[C@@H](CCCNC(N)=O)C(=O)N[C@H](C(=O)N1CCC[C@H]1C(=O)N[C@@H](CC(C)C)C(=O)NCC(=O)N[C@@H](CO)C(=O)N1CCC[C@H]1C(=O)N[C@@H](CC(=O)O)C(=O)N1CCC[C@H]1C(=O)N[C@@H](C)C(=O)O)[C@@H](C)O [agg 684] (H-NSPFCLE[Cit]TPLGSPDPA-OH)
EC50: 0.12 µM and 0.13 µM

CC[C@H](C)[C@H](NC(=O)[C@@H]1CCCN1C(=O)[C@H](Cc1ccc(O)cc1)NC(=O)[C@H](CCCNC(N)=O)NC(=O)[C@H](CC(C)C)NC(=O)[C@H](CO)NC(=O)CNC(=O)[C@H](CC(=O)O)NC(=O)[C@H](C)NC(=O)[C@H](CC(C)C)NC(=O)[C@H](Cc1c[nH]c2ccccc12)NC(=O)CNC(=O)[C@H](C)NC(=O)[C@H](Cc1ccc(O)cc1)NC(=O)[C@H](CS)NC(=O)[C@@H](N)CCCCN)C(=O)N[C@H](C(=O)O)C(C)C [agg 621] (H-KCYAGWLADGSL[Cit]YPIV-OH)
EC50: 6.9 µM and 4.66 µM

CC(C)C[C@H](NC(=O)[C@H](CCCNC(N)=O)NC(=O)[C@H](CC(=O)O)NC(=O)[C@@H](NC(=O)[C@H](Cc1ccccc1)NC(=O)[C@H](CS)NC(=O)[C@H](Cc1ccc(O)cc1)NC(=O)[C@@H](NC(=O)[C@@H](N)CC(=O)O)C(C)C)C(C)C)C(=O)N[C@@H](CCC(=O)O)C(=O)NCC(=O)N[C@@H](CCC(=O)O)C(=O)N[C@H](C(=O)N[C@@H](Cc1ccccc1)C(=O)N[C@@H](Cc1ccccc1)C(=O)N[C@@H](C)C(=O)O)C(C)C [agg 568] (H-DVYCFVD[Cit]LEGEVFFA-OH)
EC50: 23.4 µM and 3.06 µM

CC(C)C[C@H](NC(=O)[C@H](CO)NC(=O)[C@H](Cc1ccc(O)cc1)NC(=O)[C@H](CCCNC(N)=O)NC(=O)[C@@H](NC(=O)[C@@H]1CCCN1C(=O)CNC(=O)[C@@H]1CCCN1C(=O)[C@H](CCCNC(N)=O)NC(=O)[C@H](Cc1ccc(O)cc1)NC(=O)[C@H](Cc1c[nH]cn1)NC(=O)[C@H](Cc1ccccc1)NC(=O)[C@@H](NC(=O)[C@@H](NC(=O)CN)C(C)C)C(C)C)[C@@H](C)O)C(=O)N[C@H](C(=O)N[C@@H](Cc1ccccc1)C(=O)O)[C@@H](C)O [agg 477] (H-GVVFHY[Cit]PGPT[Cit]YSLTF-OH)
EC50: 14.7 µM and > 100 µM
